# Experiments:
# Experiment in all cases: biochemical
# Set-up in all cases: KINOMEscan competition binding panel (Eurofins DiscoverX), single concentration, % inhibition
# [1] = molecular target: T1, ABL1(M351T)-phosphorylated (Homo sapiens, UniProt P00519, M351T); conditions: read-out: 7 at 1 µM % inhibition
# T1 construct: phosphorylated
# Procedure, shortened: (§1)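 A single 1 µM concentration of each compound is screened across upwards of 400 human kinases using the KINOMEscan format.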
# [2] = molecular target: FLT4 (Homo sapiens, UniProt P35916); conditions: read-out: 7 at 1 µM % inhibition
# Procedure, shortened: as §1
# [3] = molecular target: T2, ABL1(Y253F)-phosphorylated (Homo sapiens, UniProt P00519, Y253F); conditions: read-out: 7 at 1 µM % inhibition
# T2 construct: phosphorylated
# Procedure, shortened: as §1
# [4] = molecular target: ROS1 (Homo sapiens, UniProt P08922); conditions: read-out: 7 at 1 µM % inhibition
# Procedure, shortened: as §1
# [5] = molecular target: T3, PFPK5(P.falciparum) (Plasmodium falciparum, UniProt P61075); conditions: read-out: 7 at 1 µM % inhibition (pathogen kinases)
# T3 construct: gene CRK2
# Procedure, shortened: (§2)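 KINOMEscan binding panel of >400 kinases, run by Eurofins DiscoverX, with compounds tested at a single concentration of 1 µM.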
# [6] = molecular target: T4, SgK110 (Homo sapiens, UniProt P0C264); conditions: read-out: 7 at 1 µM % inhibition
# T4 construct: gene SBK3
# Procedure, shortened: as §1
# [7] = molecular target: PHKG1 (Homo sapiens, UniProt Q16816); conditions: read-out: 7 at 1 µM % inhibition
# Procedure, shortened: as §1
# [8] = molecular target: CIT (Homo sapiens, UniProt O14578); conditions: read-out: 7 at 1 µM % inhibition
# Sequence of CIT (O14578 whole entry): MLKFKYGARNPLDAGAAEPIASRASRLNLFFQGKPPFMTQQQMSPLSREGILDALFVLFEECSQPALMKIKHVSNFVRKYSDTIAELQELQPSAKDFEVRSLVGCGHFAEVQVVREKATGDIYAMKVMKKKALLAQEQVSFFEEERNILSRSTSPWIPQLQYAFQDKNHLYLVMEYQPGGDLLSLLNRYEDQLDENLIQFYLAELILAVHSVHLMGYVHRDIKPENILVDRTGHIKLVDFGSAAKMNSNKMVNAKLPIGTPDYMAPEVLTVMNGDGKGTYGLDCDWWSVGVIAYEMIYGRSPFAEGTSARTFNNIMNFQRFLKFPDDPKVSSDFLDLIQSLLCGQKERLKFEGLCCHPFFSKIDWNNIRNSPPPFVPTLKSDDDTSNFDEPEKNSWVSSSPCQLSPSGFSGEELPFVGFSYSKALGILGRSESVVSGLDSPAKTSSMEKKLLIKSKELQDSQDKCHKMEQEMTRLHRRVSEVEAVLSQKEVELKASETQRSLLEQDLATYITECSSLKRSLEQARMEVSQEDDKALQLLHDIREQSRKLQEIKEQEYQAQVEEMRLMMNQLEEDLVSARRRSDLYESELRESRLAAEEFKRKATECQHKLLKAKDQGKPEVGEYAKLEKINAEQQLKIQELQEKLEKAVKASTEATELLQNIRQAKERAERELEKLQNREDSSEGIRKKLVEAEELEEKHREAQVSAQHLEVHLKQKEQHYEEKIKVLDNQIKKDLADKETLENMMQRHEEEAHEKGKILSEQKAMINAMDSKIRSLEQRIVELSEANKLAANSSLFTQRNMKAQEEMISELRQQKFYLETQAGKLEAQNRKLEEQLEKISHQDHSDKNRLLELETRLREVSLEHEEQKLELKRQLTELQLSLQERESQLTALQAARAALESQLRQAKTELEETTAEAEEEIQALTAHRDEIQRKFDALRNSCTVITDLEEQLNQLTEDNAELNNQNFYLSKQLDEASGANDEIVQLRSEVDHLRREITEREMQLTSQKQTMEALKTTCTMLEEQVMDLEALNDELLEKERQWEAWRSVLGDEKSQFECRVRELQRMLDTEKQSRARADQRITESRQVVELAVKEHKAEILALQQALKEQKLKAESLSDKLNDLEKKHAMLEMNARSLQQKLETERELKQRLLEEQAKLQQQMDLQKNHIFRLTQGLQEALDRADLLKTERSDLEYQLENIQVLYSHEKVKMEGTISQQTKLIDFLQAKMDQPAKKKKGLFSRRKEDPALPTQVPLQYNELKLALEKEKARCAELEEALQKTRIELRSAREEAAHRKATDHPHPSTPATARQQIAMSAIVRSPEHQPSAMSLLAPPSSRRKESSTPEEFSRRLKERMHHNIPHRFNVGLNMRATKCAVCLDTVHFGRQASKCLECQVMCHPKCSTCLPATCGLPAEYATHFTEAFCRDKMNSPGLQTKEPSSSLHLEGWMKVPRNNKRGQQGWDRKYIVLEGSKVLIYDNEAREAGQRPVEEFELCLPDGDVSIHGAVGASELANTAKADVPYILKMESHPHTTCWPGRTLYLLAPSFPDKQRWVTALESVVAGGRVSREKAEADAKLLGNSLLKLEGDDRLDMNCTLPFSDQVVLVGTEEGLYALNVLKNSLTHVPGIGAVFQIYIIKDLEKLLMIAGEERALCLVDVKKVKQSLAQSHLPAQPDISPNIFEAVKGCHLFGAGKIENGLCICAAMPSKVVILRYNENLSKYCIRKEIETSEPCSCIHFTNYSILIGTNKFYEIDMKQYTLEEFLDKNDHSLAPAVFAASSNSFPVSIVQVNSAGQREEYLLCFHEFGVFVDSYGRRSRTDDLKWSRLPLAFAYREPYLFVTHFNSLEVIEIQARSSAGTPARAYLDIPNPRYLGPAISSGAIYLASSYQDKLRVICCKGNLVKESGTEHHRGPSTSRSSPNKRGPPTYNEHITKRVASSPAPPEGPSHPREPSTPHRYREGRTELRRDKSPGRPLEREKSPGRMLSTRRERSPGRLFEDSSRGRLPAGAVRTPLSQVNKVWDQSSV
# Procedure, shortened: as §1
# [9] = molecular target: MAP3K4 (Homo sapiens, UniProt Q9Y6R4); conditions: read-out: 7 at 1 µM % inhibition
# Procedure, shortened: as §1
# [10] = molecular target: ERBB4 (Homo sapiens, UniProt Q15303); conditions: read-out: 7 at 1 µM % inhibition
# Sequence of ERBB4 (Q15303 whole entry): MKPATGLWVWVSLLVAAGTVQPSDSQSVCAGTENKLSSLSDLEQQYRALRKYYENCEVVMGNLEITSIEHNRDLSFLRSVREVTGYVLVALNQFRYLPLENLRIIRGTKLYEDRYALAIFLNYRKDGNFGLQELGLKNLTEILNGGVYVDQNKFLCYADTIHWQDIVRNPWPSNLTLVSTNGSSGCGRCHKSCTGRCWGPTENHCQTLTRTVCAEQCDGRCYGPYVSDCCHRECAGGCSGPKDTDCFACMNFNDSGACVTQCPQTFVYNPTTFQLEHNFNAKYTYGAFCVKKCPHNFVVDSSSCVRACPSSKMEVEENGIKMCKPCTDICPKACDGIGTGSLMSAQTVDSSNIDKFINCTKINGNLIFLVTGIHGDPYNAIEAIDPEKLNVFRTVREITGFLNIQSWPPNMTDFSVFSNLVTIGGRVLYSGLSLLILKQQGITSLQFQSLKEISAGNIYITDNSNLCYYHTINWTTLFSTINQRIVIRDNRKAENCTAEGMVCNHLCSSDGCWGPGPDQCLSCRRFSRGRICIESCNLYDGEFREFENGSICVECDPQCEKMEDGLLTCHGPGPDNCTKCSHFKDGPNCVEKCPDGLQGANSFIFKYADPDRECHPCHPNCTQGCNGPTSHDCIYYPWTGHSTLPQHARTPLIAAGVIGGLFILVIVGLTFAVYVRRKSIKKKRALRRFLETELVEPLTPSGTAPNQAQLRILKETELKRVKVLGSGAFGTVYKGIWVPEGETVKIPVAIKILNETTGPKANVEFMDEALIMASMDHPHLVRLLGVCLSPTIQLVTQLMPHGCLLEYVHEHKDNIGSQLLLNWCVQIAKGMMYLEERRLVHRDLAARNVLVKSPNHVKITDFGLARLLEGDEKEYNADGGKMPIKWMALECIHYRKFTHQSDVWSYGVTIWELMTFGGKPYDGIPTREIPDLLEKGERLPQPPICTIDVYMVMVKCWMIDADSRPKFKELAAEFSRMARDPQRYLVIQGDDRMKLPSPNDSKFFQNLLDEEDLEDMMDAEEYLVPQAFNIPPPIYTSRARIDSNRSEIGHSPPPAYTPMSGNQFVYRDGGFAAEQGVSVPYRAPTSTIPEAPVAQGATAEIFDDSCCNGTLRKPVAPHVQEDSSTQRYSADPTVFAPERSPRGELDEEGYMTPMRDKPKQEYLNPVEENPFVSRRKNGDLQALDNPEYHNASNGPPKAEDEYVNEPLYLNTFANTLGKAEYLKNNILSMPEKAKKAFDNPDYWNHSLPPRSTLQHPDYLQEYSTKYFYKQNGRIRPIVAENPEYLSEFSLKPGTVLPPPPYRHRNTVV
# Procedure, shortened: as §1
# [11] = molecular target: MARK3 (Homo sapiens, UniProt P27448); conditions: read-out: 7 at 1 µM % inhibition
# Sequence of MARK3 (P27448 whole entry): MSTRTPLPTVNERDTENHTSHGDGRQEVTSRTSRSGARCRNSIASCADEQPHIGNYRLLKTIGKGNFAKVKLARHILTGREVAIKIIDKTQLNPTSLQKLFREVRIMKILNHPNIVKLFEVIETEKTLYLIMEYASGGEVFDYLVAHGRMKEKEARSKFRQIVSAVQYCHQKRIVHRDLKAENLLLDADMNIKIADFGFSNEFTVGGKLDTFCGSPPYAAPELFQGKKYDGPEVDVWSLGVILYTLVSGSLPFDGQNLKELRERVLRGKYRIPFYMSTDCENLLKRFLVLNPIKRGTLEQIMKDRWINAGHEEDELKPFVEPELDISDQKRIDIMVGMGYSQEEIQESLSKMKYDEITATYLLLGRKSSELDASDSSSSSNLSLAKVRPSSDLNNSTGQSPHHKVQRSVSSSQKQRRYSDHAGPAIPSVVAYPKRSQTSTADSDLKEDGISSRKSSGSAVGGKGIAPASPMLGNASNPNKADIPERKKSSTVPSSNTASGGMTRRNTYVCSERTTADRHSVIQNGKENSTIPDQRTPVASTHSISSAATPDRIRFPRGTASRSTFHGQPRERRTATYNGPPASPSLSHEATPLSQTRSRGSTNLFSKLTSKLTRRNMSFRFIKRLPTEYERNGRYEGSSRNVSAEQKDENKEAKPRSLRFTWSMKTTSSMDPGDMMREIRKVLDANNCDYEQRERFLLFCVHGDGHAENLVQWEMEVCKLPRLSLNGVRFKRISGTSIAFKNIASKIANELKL
# Procedure, shortened: as §1
# [12] = molecular target: TTK (Homo sapiens, UniProt P33981); conditions: read-out: 7 at 1 µM % inhibition
# Procedure, shortened: as §1
# [13] = molecular target: PKNB(M.tuberculosis) (Mycobacterium tuberculosis, UniProt P9WI81); conditions: read-out: 7 at 1 µM % inhibition (pathogen kinases)
# Procedure, shortened: as §2
# [14] = molecular target: T5, ABL1(H396P)-nonphosphorylated (Homo sapiens, UniProt P00519, H396P); conditions: read-out: 7 at 1 µM % inhibition
# T5 construct: nonphosphorylated
# Procedure, shortened: as §1
# [15] = molecular target: BRSK2 (Homo sapiens, UniProt Q8IWQ3); conditions: read-out: 7 at 1 µM % inhibition
# Procedure, shortened: as §1
# [16] = molecular target: FLT1 (Homo sapiens, UniProt P17948); conditions: read-out: 7 at 1 µM % inhibition
# Procedure, shortened: as §1
# [17] = molecular target: CLK3 (Homo sapiens, UniProt P49761); conditions: read-out: 7 at 1 µM % inhibition
# Sequence of CLK3 (P49761 whole entry): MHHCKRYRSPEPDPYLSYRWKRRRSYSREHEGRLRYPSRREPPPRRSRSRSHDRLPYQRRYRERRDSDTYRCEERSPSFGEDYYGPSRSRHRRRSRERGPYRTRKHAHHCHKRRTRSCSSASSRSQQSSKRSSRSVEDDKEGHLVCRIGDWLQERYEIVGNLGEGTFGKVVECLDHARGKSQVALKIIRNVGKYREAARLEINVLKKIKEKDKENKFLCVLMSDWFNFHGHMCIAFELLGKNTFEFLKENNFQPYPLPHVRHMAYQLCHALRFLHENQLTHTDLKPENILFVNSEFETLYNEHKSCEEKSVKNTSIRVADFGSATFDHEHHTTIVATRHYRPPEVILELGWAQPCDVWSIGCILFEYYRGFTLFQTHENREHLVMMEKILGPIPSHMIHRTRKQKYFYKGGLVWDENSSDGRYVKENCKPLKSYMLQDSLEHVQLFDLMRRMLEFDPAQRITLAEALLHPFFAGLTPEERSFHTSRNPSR
# Procedure, shortened: as §1
# [18] = molecular target: CAMK2A (Homo sapiens, UniProt Q9UQM7); conditions: read-out: 7 at 1 µM % inhibition
# Procedure, shortened: as §1
# [19] = molecular target: FLT3(N841I) (Homo sapiens, UniProt P36888, N841I); conditions: read-out: 7 at 1 µM % inhibition
# Procedure, shortened: as §1
# [20] = molecular target: T6, SIK (Homo sapiens, UniProt P57059); conditions: read-out: 7 at 1 µM % inhibition
# T6 construct: gene SIK1
# Procedure, shortened: as §1
# [21] = molecular target: T7, MST3 (Homo sapiens, UniProt Q9Y6E0); conditions: read-out: 7 at 1 µM % inhibition
# T7 construct: gene STK24
# T7 sequence (Q9Y6E0 whole entry): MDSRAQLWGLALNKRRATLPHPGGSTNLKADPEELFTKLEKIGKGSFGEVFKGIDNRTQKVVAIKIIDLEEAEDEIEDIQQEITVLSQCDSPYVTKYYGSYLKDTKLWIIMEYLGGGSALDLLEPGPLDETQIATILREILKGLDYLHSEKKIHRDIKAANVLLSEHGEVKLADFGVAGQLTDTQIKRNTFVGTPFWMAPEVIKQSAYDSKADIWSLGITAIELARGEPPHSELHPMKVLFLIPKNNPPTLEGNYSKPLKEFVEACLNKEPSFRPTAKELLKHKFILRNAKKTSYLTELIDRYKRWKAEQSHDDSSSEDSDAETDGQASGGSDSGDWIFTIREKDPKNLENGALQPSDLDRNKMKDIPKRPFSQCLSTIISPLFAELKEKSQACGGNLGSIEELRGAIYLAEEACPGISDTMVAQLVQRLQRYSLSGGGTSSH
# Procedure, shortened: as §1
# [22] = molecular target: T8, TRKB (Homo sapiens, UniProt Q16620); conditions: read-out: 7 at 1 µM % inhibition
# T8 construct: gene NTRK2
# Procedure, shortened: as §1
# [23] = molecular target: PIM3 (Homo sapiens, UniProt Q86V86); conditions: read-out: 7 at 1 µM % inhibition
# Procedure, shortened: as §1
# [24] = molecular target: PIK3CA(H1047Y) (Homo sapiens, UniProt P42336, H1047Y); conditions: read-out: 7 at 1 µM % inhibition
# Procedure, shortened: as §1
smiles,measurement,setting,value
"CNS(=O)(=O)c1ccc(N(C)C)c(Nc2ncnc3cc(OC)c(OC)cc23)c1 [compound 7, 3-((6,7-dimethoxyquinazolin-4-yl)amino)-4-(dimethylamino)-N-methylbenzenesulfonamide]",inhibition at 1 µM,[1],6%
same,inhibition at 1 µM,[2],0%
same,inhibition at 1 µM,[3],38%
same,inhibition at 1 µM,[4],0%
same,inhibition at 1 µM,[5],6%
same,inhibition at 1 µM,[6],0%
same,inhibition at 1 µM,[7],0%
same,inhibition at 1 µM,[8],0%
same,inhibition at 1 µM,[9],0%
same,inhibition at 1 µM,[10],0%
same,inhibition at 1 µM,[11],0%
same,inhibition at 1 µM,[12],7%
same,inhibition at 1 µM,[13],23%
same,inhibition at 1 µM,[14],73%
same,inhibition at 1 µM,[15],27%
same,inhibition at 1 µM,[16],0%
same,inhibition at 1 µM,[17],18%
same,inhibition at 1 µM,[18],9%
same,inhibition at 1 µM,[19],0%
same,inhibition at 1 µM,[20],17%
same,inhibition at 1 µM,[21],0%
same,inhibition at 1 µM,[22],14%
same,inhibition at 1 µM,[23],0%
same,inhibition at 1 µM,[24],17%
